Assay results from US20220162561A1, “COMPOSITION FOR PROMOTING SECRETION OF EXTRACELLULAR VESICLES” (priority 2019, published 2022).

Key:
U-87 MG cells [1] = assay: Test Example 1: promotion of secretion of extracellular vesicles, Tim4-CD9 / Tim4-CD63 ELISA of culture supernatant; format: cell-based; conditions: 24 hours
Protocol: For the detection of extracellular vesicles contained in the culture supernatant, the Tim4-CD63 ELISA method or Tim4-CD9 ELISA method mentioned later was used.
To a 384-well plate (#464718 manufactured by Thermo Fisher Scientific K.K.) was added 1 μg/mL Tim4 protein prepared in Carbonate Buffer (a solution containing 71.4 mM NaHCO3 and 28.6 mM Na2CO3), and it was made a solid phase. The 384-well plate was washed with a 0.05% (v/v %) Tween 20-containing TBS (Tris-Buffer Saline) solution (hereinafter sometimes referred to as “TBST solution”), and then, 50 μL/well of a TBST solution containing 1% (w/v %) BSA was added thereto to carry out a blocking treatment for 1 hour. Next, 30 μL of the culture supernatant recovered above was added to the well, and further 10 μL of an 8 mM CaCl2) solution was added thereto to bind extracellular vesicles to the Tim4 protein. At this time, as a comparative object, a compound-untreated culture supernatant (solvent alone, control) was added to the Tim4 protein solid-phased plate in the same manner. Subsequently, 30 μL/well of 1 μg/mL Anti-human CD63 Antibody (#353014 available from BioLegend Inc.) diluted with a TBST solution containing 2 mM CaCl2) was added thereto and the mixture was reacted for 1 hour. To the mixture was added 50 μL/well of a TBST solution containing 2 mM CaCl2), and then, the TBST solution was removed. After repeating this operation three times, 30 μL/well of 80 ng/mL HRP-conjugated Anti-mouse IgG (#405306 available from BioLegend Inc.) diluted with a TBST solution containing 2 mM CaCl2) was added thereto and the mixture was reacted for 1 hour. Finally, 30 μL/well of a TMB solution (#05298-80 available from Nacalai Tesque Inc.) was added to the mixture and the mixture was reacted for 30 minutes, and then, 30 μL/well of a 1M H2504 solution was added thereto to stop the reaction and by measuring an absorbance at 450 nm to detect the amount of the extracellular vesicles. A relative value when the compound-untreated group (control) was made 1 was calculated. […]

U-87 MG cells [2] = conditions: concentration of at least about 2 μM or less
Protocol: After stirring 10 mL of deactivated FBS and 2 mL of a 50% (w/v %) Poly(ethylene glycol) 10,000 solution (#81280 available from Sigma-Aldrich Co., LLC) at 4° C. for 2 hours, extracellular vesicles were precipitated under the centrifugation conditions of 1,500×g at 4° C. for 30 minutes, and the supernatant was recovered to prepare Exosome-free FBS.

293 cells [3] = assay: Test Examples 10 and 11: promotion of secretion of extracellular vesicles, Tim4-CD63 / Tim4-CD81 ELISA and nanoparticle tracking analysis; format: cell-based; conditions: final concentration 0 to 1 μM, 24 hours
Protocol: (§1) After stirring 10 mL of deactivated FBS and 2 mL of a 50% (w/v %) Poly(ethylene glycol) 10,000 solution (#81280 available from Sigma-Aldrich Co., LLC) at 4° C. for 2 hours, extracellular vesicles were precipitated under the centrifugation conditions of 1,500×g at 4° C. for 30 minutes, and the supernatant was recovered to prepare Exosome-free FBS. Next, 293 cells (CRL-1573TM available from ATCC) or 293T cells (CRL-3216TM available from ATCC) were suspended in Advanced DMEM (#12491015 available from Thermo Fisher Scientific K.K.) containing 2% (v/v %) Exosome-free FBS with 2×10^4 cells/200 μL, seeded on an adhesive surface 96-well plate (#3595 manufactured by Corning Inc.) and pre-culture was carried out for 24 hours. After 24 hours, the culture solution was removed, a mixed solution of 199.5 μL of 2% (v/v %) Exosome-free FBS-containing Advanced DMEM and 0.5 μL (final concentration: 0 to 1 μM) of the compound of Example 1, 5 or 9 prepared in DMSO was added thereto, and the cells were cultured for 24 hours. Thereafter, the culture solution was recovered in a 1.5 mL tube, the cells were precipitated under centrifugation conditions of 300×g at 4° C. for 5 minutes, and the culture supernatant was recovered. Subsequently, the recovered culture supernatant was subjected to centrifugation under the conditions of 2,000×g at 4° C. for 20 minutes to precipitate cell fragments, and the supernatant was recovered. Further, the recovered supernatant was subjected to centrifugation under the conditions of 10,000×g at 4° C. for 30 minutes, and the supernatant was recovered. For detection of the extracellular vesicles contained in the supernatant after centrifugation of 10,000×g, Tim4-human CD63 ELISA method and Tim4-human CD81ELISA method mentioned later was used.
(§2) <Tim4-Human CD63 ELISA Method>100 μL/well of 1 μg/mL Tim4 protein prepared in Carbonate Buffer (solution containing 71.4 mM NaHCO3 and 28.6 mM Na2CO3) was added to a 96-well plate (#3801-096 manufactured by IWAKI & CO., LTD.) and made it a solid phase. After washing the 96-well plate with a TBST solution, 200 μL/well of the TBST solution containing 1% (w/v %) BSA was added thereto and a blocking treatment for 1 hour was carried out. Next, 90 μL of the supernatant recovered as mentioned above was added to the well, and 10 μL of a 20 mM CaCl2) solution was further added to bind the extracellular vesicles to the Tim4 protein. Subsequently, 100 μL/well of 1 μg/mL Anti-human CD63 Antibody (#353014 available from BioLegend Inc.) diluted with the TBST solution containing 2 mM CaCl2) was added thereto and the reaction was carried out for 1 hour. 200 μL/well of the TBST solution containing 2 mM CaCl2) was added thereto, and thereafter, the TBST solution was removed. […]

293T cells [4] = assay: as above; format: cell-based; conditions: final concentration 0 to 1 μM, 24 hours
Protocol: as §1, §2

293 cells [5] = assay: Test Example 12: cytotoxicity, LDH activity in culture supernatant; format: cell-based; conditions: concentration of at least about 0.3 μM or less
Protocol: (§4) After stirring 10 mL of deactivated FBS and 2 mL of a 50% (w/v %) Poly(ethylene glycol) 10,000 solution (#81280 available from Sigma-Aldrich Co., LLC) at 4° C. for 2 hours, extracellular vesicles were precipitated under the centrifugation conditions of 1,500×g at 4° C. for 30 minutes, and the supernatant was recovered to prepare Exosome-free FBS. Next, 293 cells (CRL-1573TM available from ATCC) or 293T cells (CRL-3216TM available from ATCC) were suspended in Advanced DMEM (#12491015 available from Thermo Fisher Scientific K.K.) containing 2% (v/v %) Exosome-free FBS with 2×10^4 cells/200 μL, seeded on an adhesive surface 96-well plate (#3595 manufactured by Corning Inc.), and pre-culture for 24 hours was carried out. […] The activity of lactate dehydrogenase (LDH) contained in the culture supernatant was measured using
(§5) Cytotoxicity LDH Assay Kit-WST (#CK12 manufactured by Dojindo Laboratories). […] The reaction was stopped by adding 25 μL of Stop Solution, and the cytotoxicity was evaluated by measuring the absorbance at 490 nm. The activities of LDH of the dead cell group (sample to which 20 μL of Lysis Buffer was added to compound-untreated cells 15 minutes before recovery of the culture solution) and the culture solution (culture solution in which no cell culture was carried out) were also measured in the same manner, and cytotoxicity of each compound was evaluated.

293T cells [6] = assay: as above; format: cell-based; conditions: concentration of at least about 0.3 μM or less
Protocol: as §4, §5

293 cells [7] = assay: Test Example 13: cell proliferation activity, Cell Count Reagent SF; format: cell-based
Protocol: (§3) After 30 minutes, absorbance at 450 nm was measured to evaluate cell proliferation activity.

293T cells [8] = assay: as above; format: cell-based
Protocol: as §3

[9] = concentration of at least about 0.3 μM or less
[10] = concentration of at least about 0.03 μM (30 nM) or less

Row | SMILES | secretion of CD9 and/or CD63-positive extracellular vesicles (U-87 MG cells [1]; 10 μM) | cytotoxicity to U-87 MG cells (LDH amount in the culture supernatant) (U-87 MG cells [2]) | amount of secretion of CD63 and/or CD81-positive extracellular vesicles (293 cells [3]) | amount of secretion of CD63 and/or CD81-positive extracellular vesicles (293T cells [4]) | cytotoxicity (LDH amount in the culture supernatant) (293 cells [5]) | cytotoxicity (LDH amount in the culture supernatant) (293T cells [6]) | effect on the proliferative activity (293 cells [7]; [9]) | effect on the proliferative activity (293T cells [8]; [9]) | secretion of CD9 and/or CD63-positive extracellular vesicles (U-87 MG cells [1]; 5 μM) | secretion of CD63-positive extracellular vesicles (U-87 MG cells [1]; 5 μM) | effect on the proliferative activity (293 cells [7]; [10]) | effect on the proliferative activity (293T cells [8]; [10])
1 | CC(=O)O.Cc1cc2c(C(C)C)c(O)c(O)c(C=O)c2c(O)c1-c1c(C)cc2c(C(C)C)c(O)c(O)c(C=O)c2c1O (racemic) [Example 1, (±)-Gossypol Acetate] | strongly promoted secretion | low | promotes | promotes | low cytotoxicity | low cytotoxicity | do not significantly affect | do not significantly affect | – | – | – | –
2 | COC1=CC(c2cc3ccccc3[nH]2)=N/C1=C\c1[nH]c(C)cc1C.CS(=O)(=O)O [Example 5, Obatoclax Mesylate] | – | – | promotes | promotes | – | – | – | – | promotes secretion | strongly promoted secretion | do not significantly affect | do not significantly affect
